Laboratory results from the supplement of paper PMC10307832.

Assays:
Assay in all cases: relative viability (nuclei count vs DMSO), 5 days (fraction); higher = more cells survive
[1] = compound: CN1CCC(CNc2ccc3ncc(-c4cccc(OC(F)(F)F)c4)n3n2)CC1 [SGI-1776] + CC(=O)c1c(C)c2cnc(Nc3ccc(N4CCNCC4)cn3)nc2n(C2CCCC2)c1=O [Palbociclib] (partner 0.5 µM)
In short: (§1)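 Relative viability was taken as the ratio of nuclei in treated wells to nuclei in vehicle wells. Lung cancer cell lines in 1536-well plates received compounds by pin tool one day after seeding, either one drug alone or a fixed anchor-drug dose plus five library-drug doses (not always all listed) in √10 steps. Nuclei were counted on 4× images after 5 days of treatment, and values are medians of duplicate plates.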

[2] = compound: C1COCCN1C2=NC(=NC3=C2OC4=C3C=CC=N4)C5=CC(=CC=C5)NC(=O)C6=CN=C(C=C6)N + O=C(c1cc(Cc2n[nH]c(=O)c3ccccc23)ccc1F)N1CCN(C(=O)C2CC2)CC1 [Olaparib] (partner 8 µM)
In short: as §1

[3] = compound: C1COCCN1C2=NC(=NC3=C2OC4=C3C=CC=N4)C5=CC(=CC=C5)NC(=O)C6=CN=C(C=C6)N + Cc1cc(Nc2cc(N3CCN(C)CC3)nc(Sc3ccc(NC(=O)C4CC4)cc3)n2)n[nH]1 [Tozasertib] (partner 0.1 µM)
In short: as §1

[4] = compound: Nc1ccccc1NC(=O)c1ccc(CNC(=O)OCc2cccnc2)cc1 [Entinostat] + CC1(C)CCC(c2ccc(Cl)cc2)=C(CN2CCN(c3ccc(C(=O)NS(=O)(=O)c4ccc(N[C@H](CCN5CCOCC5)CSc5ccccc5)c(S(=O)(=O)C(F)(F)F)c4)cc3)CC2)C1 [Navitoclax] (partner 0.5 µM)
In short: as §1

In the case of UMC-11, the relative viability ([1]; first compound 0.08 µM) is reported as 0.366, the relative viability ([1]; first compound 0.8 µM) is reported as 0.338 and the relative viability ([1]; first compound 2.53 µM) is reported as 0.378. For the same cell line, the relative viability ([1]; first compound 8 µM) was 0.312, the relative viability ([2]; first compound 0.02 µM) was 0.374 and the relative viability ([2]; first compound 0.06325 µM) was 0.37. It also gave a relative viability ([2]; first compound 0.2 µM) of 0.354, a relative viability ([2]; first compound 0.6325 µM) of 0.359 and a relative viability ([2]; first compound 2 µM) of 0.246. For the same cell line, the relative viability ([3]; first compound 0.02 µM) was 0.205, the relative viability ([3]; first compound 0.06325 µM) was 0.188 and the relative viability ([3]; first compound 0.2 µM) was 0.193. The relative viability ([3]; first compound 0.6325 µM) was 0.182, the relative viability ([3]; first compound 2 µM) was 0.177 and the relative viability ([4]; first compound 0.02 µM) was 0.29. For the same cell line, the relative viability ([4]; first compound 0.06325 µM) was 0.302, the relative viability ([4]; first compound 0.2 µM) was 0.25 and the relative viability ([4]; first compound 0.6325 µM) was 0.117. It also gave a relative viability ([4]; first compound 2 µM) of 0.115.
